Broadly, the GI50 is the concentration that inhibits growth by half.

The record followed here is ChEMBL document CHEMBL1201862, “PubChem BioAssay data set” (2004).

Among the test systems are HCT-116; UO-31; SNB-19; CCRF-CEM; MOLT-4; SW-620; M14; SF-539; HL-60; IGROV-1; OVCAR-8; OVCAR-3; UACC-257; TK-10; A549; SR.
What all share (assay): DTP human tumour cell line panel, 48 h

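Interpolation was linear, between the two tested concentrations surrounding the appropriate level; five concentrations were tested over 48 hours in 96-well plates. Here, GI50 denotes the concentration required for 50% inhibition of growth.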 Active and inactive are the calls of the source. Cut-off read from the data, not from the text of the source: active = GI50 up to about 1.1 µM and inactive = higher.

Consider `Cc1cc2c3c(coc3c1-c1c(C)cc3c4c(coc14)C(=O)C(O)=C3C(C)C)C(=O)C(O)=C2C(C)C`, for which the GI50 in the experiment on HCT-116 was 3.54 µM (inactive); in the experiment on UO-31, 16.6 µM (inactive); with SNB-19 it was 4.35 µM (inactive); in the experiment on CCRF-CEM, 3.58 µM (inactive); with MOLT-4, 3.66 µM (inactive); in the experiment with SW-620, 5.2 µM (inactive). The GI50 in the experiment with M14 is 11.7 µM (inactive); in the experiment with SF-539, 3.44 µM (inactive); in the experiment with HL-60, 3.42 µM (inactive); in the experiment with IGROV-1, 3.99 µM (inactive); in the experiment with OVCAR-8 it was 4.72 µM (inactive); in the experiment on OVCAR-3, 5.45 µM (inactive). The GI50 is 14.3 µM (inactive) in the experiment with UACC-257, 14.5 µM (inactive) with TK-10 and 4.05 µM (inactive) in the experiment with A549.
As to `CC(C)CC(NC(=O)c1cccc(O)c1O)C(=O)NCc1cc(CNC(=O)C(CC(C)C)NC(=O)c2cccc(O)c2O)cc(CNC(=O)C(CC(C)C)NC(=O)c2cccc(O)c2O)c1` (stereo not given), the GI50 in the experiment on HCT-116 is 15.9 µM (inactive); in the experiment with UO-31 it was 12.3 µM (inactive); with SNB-19 it was 13.6 µM (inactive); in the experiment with CCRF-CEM, 4.91 µM (inactive); in the experiment on MOLT-4, 11.4 µM (inactive); in the experiment on SW-620, 17.2 µM (inactive). Moreover, the GI50 was 5.47 µM (inactive) in the experiment on SF-539; 4.34 µM (inactive) with HL-60; 5.66 µM (inactive) in the experiment on IGROV-1; 40.6 µM (inactive) in the experiment on OVCAR-8; 8.36 µM (inactive) in the experiment on SR; 4.33 µM (inactive) in the experiment on OVCAR-3. For the same compound, the GI50 is 20.1 µM (inactive) in the experiment on UACC-257, 16.2 µM (inactive) with TK-10 and 18.6 µM (inactive) in the experiment on A549.
With `COc1cc2c(cc1O)C=NCC2`, the GI50 is > 100 µM (inactive) in the experiment on HCT-116; > 100 µM (inactive) with UO-31; > 100 µM (inactive) with SNB-19; 50 µM (inactive) with CCRF-CEM; 60.5 µM (inactive) in the experiment with MOLT-4; > 100 µM (inactive) with SW-620. Moreover, the GI50 is > 100 µM (inactive) in the experiment with M14; > 100 µM (inactive) in the experiment on SF-539; > 100 µM (inactive) in the experiment with HL-60; > 100 µM (inactive) in the experiment on IGROV-1; > 100 µM (inactive) in the experiment with OVCAR-8; 78.5 µM (inactive) in the experiment on OVCAR-3. The GI50 with UACC-257, with TK-10 and in the experiment with A549 was > 100 µM (inactive) throughout.
As for `CC1(C)C(=O)C(C)(C)C1=NN`, the GI50 in the experiment with HCT-116, in the experiment on UO-31, with SNB-19, in the experiment with MOLT-4, in the experiment on SW-620 and in the experiment with M14 was > 100 µM (inactive) in each case. Further, the GI50 in the experiment with SF-539, with HL-60, with IGROV-1, in the experiment with OVCAR-8, in the experiment on SR and in the experiment with OVCAR-3 was > 100 µM (inactive) throughout. Further, the GI50 in the experiment with UACC-257, in the experiment on TK-10 and with A549 was > 100 µM (inactive) throughout.
With `CCSC(SCC)=C1C(=O)N(c2ccccc2)N=C1C`, the GI50 in the experiment with HCT-116 was 15.1 µM (inactive); with UO-31, 15.6 µM (inactive); in the experiment with SNB-19, 25.2 µM (inactive); with CCRF-CEM, 2.92 µM (inactive); with MOLT-4, 6.98 µM (inactive); in the experiment on SW-620 it was 7.66 µM (inactive). For the same compound, the GI50 with M14 is 13.6 µM (inactive); with HL-60, 2.33 µM (inactive); with IGROV-1 it was 17.4 µM (inactive); in the experiment on OVCAR-8, 11.6 µM (inactive); with SR, 15.6 µM (inactive); in the experiment on OVCAR-3, 4.67 µM (inactive). Also, the GI50 in the experiment with UACC-257 was 4.06 µM (inactive); in the experiment on TK-10, 10.1 µM (inactive); with A549, 18.1 µM (inactive).
Consider `O=C(c1cccs1)N(C(=S)N1CCN(c2ccccn2)CC1)C1CCCCC1`, for which the GI50 in the experiment on HCT-116 is 49.3 µM (inactive); in the experiment on UO-31 it was 44.4 µM (inactive); in the experiment on SNB-19, > 100 µM (inactive); with CCRF-CEM, 81.1 µM (inactive); with MOLT-4, 33 µM (inactive); in the experiment with SW-620 it was > 100 µM (inactive). Further, the GI50 was 76.4 µM (inactive) in the experiment on M14; > 100 µM (inactive) in the experiment with SF-539; > 100 µM (inactive) with HL-60; > 100 µM (inactive) in the experiment with IGROV-1; > 100 µM (inactive) with OVCAR-8; 36.6 µM (inactive) with SR. Also, the GI50 in the experiment on OVCAR-3 was 57.3 µM (inactive); in the experiment with UACC-257 it was 50.9 µM (inactive); with TK-10, > 100 µM (inactive); in the experiment with A549 it was 43.7 µM (inactive).
For the compound `COc1cccc(NC(=O)CSc2nnc(-c3ccc(NC(C)=O)cc3)o2)c1`, the GI50 with HCT-116 was > 100 µM (inactive); in the experiment with UO-31, 80.4 µM (inactive); with CCRF-CEM, 79.1 µM (inactive); in the experiment on MOLT-4, > 100 µM (inactive); with SW-620, > 100 µM (inactive); with M14, > 100 µM (inactive). In addition, the GI50 in the experiment on HL-60 was > 100 µM (inactive); with IGROV-1, 50 µM (inactive); in the experiment on OVCAR-8, > 100 µM (inactive); in the experiment on SR it was 90.2 µM (inactive); in the experiment on OVCAR-3, > 100 µM (inactive); in the experiment with UACC-257, > 100 µM (inactive). For the same compound, the GI50 in the experiment on TK-10 and in the experiment on A549 was > 100 µM (inactive) each time.
As for `CCN(c1ccccc1)[C@H]1C(=O)N(c2ccc([N+](=O)[O-])cc2)[C@H]1c1ccc(OC)cc1`, the GI50 in the experiment with HCT-116 was > 100 µM (inactive); with UO-31, > 100 µM (inactive); with SNB-19, > 100 µM (inactive); with CCRF-CEM, 39.1 µM (inactive); with MOLT-4, > 100 µM (inactive); in the experiment with SW-620 it was > 100 µM (inactive). Further, the GI50 in the experiment with SF-539 was 35.2 µM (inactive); with HL-60, 75.3 µM (inactive); in the experiment with IGROV-1, > 100 µM (inactive); in the experiment on OVCAR-8, > 100 µM (inactive); in the experiment with SR, > 100 µM (inactive); in the experiment with OVCAR-3, > 100 µM (inactive). In addition, the GI50 with UACC-257, with TK-10 and in the experiment on A549 was > 100 µM (inactive) each time.
Take `CC(C)C(=O)/C=C/c1ccc(Cl)cc1`: the GI50 with HCT-116 was 2.67 µM (inactive); in the experiment on UO-31, 12.2 µM (inactive); in the experiment with SNB-19, 13.4 µM (inactive); in the experiment with CCRF-CEM it was 4.19 µM (inactive); in the experiment on MOLT-4 it was 12.2 µM (inactive); with SW-620 it was 3.99 µM (inactive). Also, the GI50 in the experiment on M14 was 17.1 µM (inactive); in the experiment on SF-539, 10.4 µM (inactive); in the experiment with HL-60, 8.22 µM (inactive); in the experiment with IGROV-1, 21.6 µM (inactive); with SR, 4.84 µM (inactive); in the experiment on OVCAR-3 it was 14.4 µM (inactive). In addition, the GI50 was 20.2 µM (inactive) with UACC-257 and 21.7 µM (inactive) in the experiment with A549.
For `CC1(O)CCC2(C)C(=O)C1(C)CCC21OCCO1` (stereo not given), the GI50 in the experiment with UO-31, with SNB-19, in the experiment with CCRF-CEM, with MOLT-4, in the experiment on SW-620 and in the experiment on M14 was > 100 µM (inactive) throughout. The GI50 in the experiment on SF-539, in the experiment with HL-60, with IGROV-1, with OVCAR-8, in the experiment on SR and in the experiment with OVCAR-3 was > 100 µM (inactive) throughout. In addition, the GI50 in the experiment with UACC-257, in the experiment on TK-10 and in the experiment on A549 was > 100 µM (inactive) each time.
As to `CCOP1(=O)C=CC(Cl)=C(C)C1` (stereo not given), the GI50 in the experiment on HCT-116 was 5.58 µM (inactive); in the experiment on UO-31, 25.6 µM (inactive); in the experiment with SNB-19, 67.5 µM (inactive); with CCRF-CEM it was 3.13 µM (inactive); in the experiment with MOLT-4, 3.64 µM (inactive); with SW-620, 11.5 µM (inactive). Further, the GI50 with M14 is 14.7 µM (inactive); with SF-539, 17.8 µM (inactive); with HL-60, 3.57 µM (inactive); in the experiment on IGROV-1, 23.4 µM (inactive); in the experiment on OVCAR-8 it was 19.6 µM (inactive); with OVCAR-3, 19.9 µM (inactive). Besides, the GI50 in the experiment on UACC-257 was 15.5 µM (inactive); in the experiment on TK-10, 19.5 µM (inactive); in the experiment with A549, 31.1 µM (inactive).
Turning to `COc1ccc(C(CCC(C)=O)C(=O)O)cc1OC` (stereo not given), the GI50 in the experiment on HCT-116, in the experiment with SNB-19, in the experiment with SW-620, in the experiment with SF-539, in the experiment on IGROV-1 and with OVCAR-8 was > 100 µM (inactive) throughout. Also, the GI50 with SR, in the experiment with OVCAR-3, with UACC-257, in the experiment on TK-10 and in the experiment with A549 was > 100 µM (inactive) in each case.
As for `COc1cc(C2c3cc4c(cc3[C@@H](N(C)c3ccc(N(C)C)cc3)C3COC(=O)C23)OCO4)cc(OC)c1O` (stereo not given in full), the GI50 in the experiment with HCT-116 was 0.399 µM (active); in the experiment with UO-31 it was 0.964 µM (active); in the experiment on SNB-19, 2.15 µM (inactive); in the experiment on CCRF-CEM it was 0.343 µM (active); with MOLT-4 it was 0.434 µM (active); with SW-620, 0.184 µM (active). The GI50 in the experiment with M14 is 0.305 µM (active); with SF-539 it was 0.255 µM (active); with HL-60, 0.362 µM (active); with IGROV-1, 0.536 µM (active); in the experiment with OVCAR-8, 0.365 µM (active); in the experiment with SR it was 0.427 µM (active). In addition, the 50% growth inhibitory concentration (GI50) in the experiment with OVCAR-3 is 0.213 µM (active); in the experiment with UACC-257 it was 1.39 µM (inactive); in the experiment on TK-10 it was 18.5 µM (inactive).
